Experiment [1] deals with MDA-MB-231. As to the kind of experiment: Antiproliferative activity against human MDA-MB-231 cells assessed as inhibition of cell growth incubated for 72 hrs by CellTiter 96 aqueous one solution assay. The format is functional, cell-based. As to conditions: MDA-MB-231, 72 h.
The test system of experiment [2] is OVCAR-3. As to the kind of experiment: Antiproliferative activity against human OVCAR3 cells assessed as inhibition of cell growth incubated for 72 hrs by CellTiter 96 aqueous one solution assay. The settings on record: OVCAR-3, 72 h. The format is functional, cell-based.
The subject of experiment [3] is MDA-MB-435. As to the kind of experiment: Antiproliferative activity against human MDA-MB-435 cells assessed as inhibition of cell growth incubated for 72 hrs by CellTiter 96 aqueous one solution assay. Format: functional, cell-based. The settings on record: MDA-MB-435, 72 h.
Experiment [4] deals with Histone-lysine N-methyltransferase 2A (Homo sapiens, UniProt Q03164). As to the kind of experiment: Inhibition of human recombinant MLL1 using [3H]S-adenosyl-methionine as substrate.

Molecules are shown by their SMILES.

Chain of Histone-lysine N-methyltransferase 2A (Q03164 1-2718 limits assumed): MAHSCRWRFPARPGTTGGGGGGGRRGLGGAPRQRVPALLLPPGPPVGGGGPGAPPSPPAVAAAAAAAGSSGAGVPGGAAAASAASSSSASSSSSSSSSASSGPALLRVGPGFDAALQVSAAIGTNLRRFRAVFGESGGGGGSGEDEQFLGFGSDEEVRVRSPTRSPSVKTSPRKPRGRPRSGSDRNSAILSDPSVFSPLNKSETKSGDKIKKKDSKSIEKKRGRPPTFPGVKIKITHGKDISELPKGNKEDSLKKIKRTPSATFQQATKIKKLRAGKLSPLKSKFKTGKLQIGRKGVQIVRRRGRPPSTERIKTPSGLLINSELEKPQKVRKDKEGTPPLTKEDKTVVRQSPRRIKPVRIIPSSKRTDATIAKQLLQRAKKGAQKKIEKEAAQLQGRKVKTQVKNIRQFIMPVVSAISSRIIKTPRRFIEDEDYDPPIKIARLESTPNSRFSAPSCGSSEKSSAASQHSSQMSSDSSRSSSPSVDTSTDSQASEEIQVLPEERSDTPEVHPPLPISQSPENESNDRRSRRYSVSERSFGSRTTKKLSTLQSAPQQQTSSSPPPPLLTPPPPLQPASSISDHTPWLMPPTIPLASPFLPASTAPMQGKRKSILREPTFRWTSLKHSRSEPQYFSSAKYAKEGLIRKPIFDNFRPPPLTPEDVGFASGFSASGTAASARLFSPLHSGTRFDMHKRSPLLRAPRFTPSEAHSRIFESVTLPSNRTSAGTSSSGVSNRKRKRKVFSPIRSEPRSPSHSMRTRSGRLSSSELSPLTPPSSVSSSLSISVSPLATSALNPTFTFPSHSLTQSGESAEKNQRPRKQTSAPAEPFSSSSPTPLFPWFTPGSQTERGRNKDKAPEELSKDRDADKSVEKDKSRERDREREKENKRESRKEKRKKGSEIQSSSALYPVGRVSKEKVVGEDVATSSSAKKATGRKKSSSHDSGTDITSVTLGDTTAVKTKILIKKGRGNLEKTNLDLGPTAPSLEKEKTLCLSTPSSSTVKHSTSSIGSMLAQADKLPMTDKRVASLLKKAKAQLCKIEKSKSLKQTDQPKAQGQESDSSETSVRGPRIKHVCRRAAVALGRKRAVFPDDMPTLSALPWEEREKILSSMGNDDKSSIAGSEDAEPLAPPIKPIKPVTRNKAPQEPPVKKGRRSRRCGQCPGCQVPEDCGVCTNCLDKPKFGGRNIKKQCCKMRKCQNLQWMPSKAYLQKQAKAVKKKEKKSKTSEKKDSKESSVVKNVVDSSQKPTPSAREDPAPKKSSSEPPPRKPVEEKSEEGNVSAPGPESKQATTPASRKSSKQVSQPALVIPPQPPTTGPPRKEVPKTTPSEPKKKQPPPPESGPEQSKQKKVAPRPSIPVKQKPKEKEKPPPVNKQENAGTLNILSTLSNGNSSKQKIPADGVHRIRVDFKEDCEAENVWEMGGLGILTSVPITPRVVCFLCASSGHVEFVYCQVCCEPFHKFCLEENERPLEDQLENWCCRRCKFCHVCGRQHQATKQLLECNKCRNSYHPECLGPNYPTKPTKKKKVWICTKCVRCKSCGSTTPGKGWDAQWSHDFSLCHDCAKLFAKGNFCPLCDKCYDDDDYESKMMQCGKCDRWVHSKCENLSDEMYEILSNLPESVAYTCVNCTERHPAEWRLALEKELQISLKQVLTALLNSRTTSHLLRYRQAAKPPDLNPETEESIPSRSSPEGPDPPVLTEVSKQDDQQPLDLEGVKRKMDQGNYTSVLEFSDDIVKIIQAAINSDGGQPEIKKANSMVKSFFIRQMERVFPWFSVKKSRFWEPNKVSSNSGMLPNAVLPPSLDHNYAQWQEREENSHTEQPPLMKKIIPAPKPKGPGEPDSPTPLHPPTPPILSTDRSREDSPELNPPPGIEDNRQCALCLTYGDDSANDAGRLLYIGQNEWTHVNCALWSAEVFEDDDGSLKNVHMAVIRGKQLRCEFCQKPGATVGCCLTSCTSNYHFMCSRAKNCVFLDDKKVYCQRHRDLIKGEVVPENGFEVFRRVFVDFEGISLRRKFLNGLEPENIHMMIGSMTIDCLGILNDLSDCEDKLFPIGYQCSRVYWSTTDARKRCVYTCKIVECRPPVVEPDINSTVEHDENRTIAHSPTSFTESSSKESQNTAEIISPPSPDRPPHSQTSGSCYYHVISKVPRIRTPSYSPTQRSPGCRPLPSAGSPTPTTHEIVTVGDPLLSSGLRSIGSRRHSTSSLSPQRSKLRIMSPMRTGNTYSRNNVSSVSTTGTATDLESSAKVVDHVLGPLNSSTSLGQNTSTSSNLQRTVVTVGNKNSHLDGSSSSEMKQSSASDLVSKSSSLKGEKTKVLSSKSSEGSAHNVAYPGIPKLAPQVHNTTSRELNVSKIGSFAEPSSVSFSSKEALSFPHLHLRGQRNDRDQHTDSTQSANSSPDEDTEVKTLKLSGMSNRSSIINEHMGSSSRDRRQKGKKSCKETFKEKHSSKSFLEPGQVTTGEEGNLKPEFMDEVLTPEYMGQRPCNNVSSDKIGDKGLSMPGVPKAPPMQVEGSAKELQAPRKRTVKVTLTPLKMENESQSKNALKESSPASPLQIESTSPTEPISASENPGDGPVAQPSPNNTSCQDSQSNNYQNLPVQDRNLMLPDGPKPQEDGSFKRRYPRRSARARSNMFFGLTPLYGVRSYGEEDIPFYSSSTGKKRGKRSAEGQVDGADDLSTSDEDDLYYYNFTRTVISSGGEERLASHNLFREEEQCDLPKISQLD
Chain of Histone-lysine N-methyltransferase 2A (Q03164 2719-3969 limits assumed): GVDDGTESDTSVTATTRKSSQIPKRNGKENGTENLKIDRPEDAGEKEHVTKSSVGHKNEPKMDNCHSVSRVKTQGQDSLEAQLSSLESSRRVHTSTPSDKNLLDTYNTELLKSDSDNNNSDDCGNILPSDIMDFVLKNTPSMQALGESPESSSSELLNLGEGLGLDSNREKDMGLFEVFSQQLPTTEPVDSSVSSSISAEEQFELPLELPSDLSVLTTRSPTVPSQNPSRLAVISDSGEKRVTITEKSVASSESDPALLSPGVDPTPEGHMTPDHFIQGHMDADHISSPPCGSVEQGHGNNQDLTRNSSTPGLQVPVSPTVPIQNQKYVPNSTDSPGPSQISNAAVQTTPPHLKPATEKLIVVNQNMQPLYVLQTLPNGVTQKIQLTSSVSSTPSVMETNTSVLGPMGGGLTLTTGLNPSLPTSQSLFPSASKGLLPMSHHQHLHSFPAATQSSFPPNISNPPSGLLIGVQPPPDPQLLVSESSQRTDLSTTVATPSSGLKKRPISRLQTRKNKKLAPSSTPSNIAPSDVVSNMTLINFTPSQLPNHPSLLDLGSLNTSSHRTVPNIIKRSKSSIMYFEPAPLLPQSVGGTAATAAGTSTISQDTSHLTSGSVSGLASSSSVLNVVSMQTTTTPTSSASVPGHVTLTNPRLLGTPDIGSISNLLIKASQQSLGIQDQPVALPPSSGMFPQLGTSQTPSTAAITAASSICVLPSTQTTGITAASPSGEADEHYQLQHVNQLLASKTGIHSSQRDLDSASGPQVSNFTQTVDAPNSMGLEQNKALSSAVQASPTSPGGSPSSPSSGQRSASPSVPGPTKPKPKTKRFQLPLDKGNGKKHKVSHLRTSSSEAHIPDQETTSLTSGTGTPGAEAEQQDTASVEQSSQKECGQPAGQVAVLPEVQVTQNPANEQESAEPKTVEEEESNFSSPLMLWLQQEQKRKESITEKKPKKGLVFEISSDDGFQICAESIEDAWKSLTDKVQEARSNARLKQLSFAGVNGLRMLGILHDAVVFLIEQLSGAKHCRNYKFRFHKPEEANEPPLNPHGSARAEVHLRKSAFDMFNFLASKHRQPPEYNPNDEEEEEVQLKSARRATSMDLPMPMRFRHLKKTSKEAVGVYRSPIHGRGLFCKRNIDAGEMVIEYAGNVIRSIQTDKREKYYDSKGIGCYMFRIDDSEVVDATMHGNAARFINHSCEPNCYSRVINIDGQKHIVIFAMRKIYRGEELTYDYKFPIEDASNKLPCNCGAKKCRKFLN

For orientation: IC50 means the midpoint of a concentration-inhibition curve. Regarding `CC[C@@]12SS[C@]3(C(=O)N1C)[C@@H](O)[C@]1([C@@]45c6ccccc6N[C@@H]4N4C(=O)[C@]6(C)SS[C@]4(C(=O)N6C)[C@H]5O)c4ccccc4N[C@@H]1N3C2=O`, the IC50 was 22 nM in experiment [1], 30 nM in experiment [2] and 30 nM in experiment [3].

Regarding `CC[C@@]12SS[C@]3(C(=O)N1C)[C@@H](O)[C@]1([C@@]45c6cc(F)ccc6N[C@@H]4N4C(=O)[C@]6(CC)SS[C@]4(C(=O)N6C)[C@H]5O)c4ccccc4N[C@@H]1N3C2=O`, the IC50 in experiment [1] was determined as 46 nM; in experiment [2], 39 nM; in experiment [3], 49 nM.

As to `CN1C(=O)[C@]23SS[C@@]1(C)C(=O)N2[C@H]1Nc2ccc(F)cc2[C@@]1([C@@]12c4cc(F)ccc4N[C@@H]1N1C(=O)[C@]4(C)SS[C@]1(C(=O)N4C)[C@H]2O)[C@@H]3O`, the results for the IC50 in experiment [1], in experiment [2] and in experiment [3] were 59 nM, 75 nM and 65 nM, respectively.

Consider `CC(=O)O[C@H]1C(=O)[C@@]2(C)[C@H]([C@H](OC(=O)c3ccccc3)[C@]3(O)C[C@H](OC(=O)[C@H](O)[C@@H](NC(=O)c4ccccc4)c4ccccc4)C(C)=C1C3(C)C)[C@]1(OC(C)=O)CO[C@@H]1C[C@@H]2O` [PACLITAXEL], for which the IC50 in experiment [1] came to 170 nM; in experiment [2], 5 nM; in experiment [3], 0.4 nM.

Regarding `CC[C@@]12SS[C@]3(C(=O)N1C)[C@@H](O)[C@]1([C@@]45c6ccccc6N[C@@H]4N4C(=O)[C@]6(C)SS[C@]4(C(=O)N6C)[C@H]5O)c4cc(F)ccc4N[C@@H]1N3C2=O`, the IC50 was 37 nM in experiment [1], 37 nM in experiment [2] and 39 nM in experiment [3].

On to `CC[C@@]12SS[C@]3(C(=O)N1C)[C@@H](O)[C@]1([C@@]45c6cc(F)ccc6N[C@@H]4N4C(=O)[C@]6(CC)SS[C@]4(C(=O)N6C)[C@H]5O)c4cc(F)ccc4N[C@@H]1N3C2=O`, for which the values for the IC50 in experiment [1], in experiment [2] and in experiment [3] were 840 nM, 920 nM and 830 nM, respectively.

Consider `CC[C@@]12SS[C@]3(C(=O)N1C)[C@@H](O)[C@]1([C@@]45c6cc(F)ccc6N[C@@H]4N4C(=O)[C@]6(C)SS[C@]4(C(=O)N6C)[C@H]5O)c4cc(F)ccc4N[C@@H]1N3C2=O`, for which the IC50 worked out at 110 nM in experiment [1], 180 nM in experiment [2] and 130 nM in experiment [3].

As for `CN1C(=O)[C@]23SS[C@@]1(C)C(=O)N2[C@H]1Nc2ccccc2[C@@]1([C@@]12c4cc(F)ccc4N[C@@H]1N1C(=O)[C@]4(C)SS[C@]1(C(=O)N4C)[C@H]2O)[C@@H]3O`, the IC50 in experiment [1] worked out at 230 nM; in experiment [2], 180 nM; in experiment [3], 240 nM.

`CC[C@@]12SS[C@]3(C(=O)N1C)[C@@H](O)[C@]1([C@@]45c6ccccc6N[C@@H]4N4C(=O)[C@]6(CC)SS[C@]4(C(=O)N6C)[C@H]5O)c4ccccc4N[C@@H]1N3C2=O`: the IC50 in experiment [1] came to 71 nM; in experiment [2], 100 nM; in experiment [3], 88 nM.

Turning to `CC[C@@]12SS[C@]3(C(=O)N1C)[C@@H](O)[C@]1([C@@]45c6cc(F)ccc6N[C@@H]4N4C(=O)[C@]6(C)SS[C@]4(C(=O)N6C)[C@H]5O)c4ccccc4N[C@@H]1N3C2=O`, the IC50 in experiment [1] was found to be 70 nM; in experiment [2], 100 nM; in experiment [3], 72 nM.

On to `CN1C(=O)[C@]23SS[C@@]1(C)C(=O)N2[C@H]1Nc2ccccc2[C@@]1([C@@]12c4ccccc4N[C@@H]1N1C(=O)[C@]4(C)SS[C@]1(C(=O)N4C)[C@H]2O)[C@@H]3O`, for which the IC50 was found to be 43 nM in experiment [1], 37 nM in experiment [2], 37 nM in experiment [3] and 800 nM in experiment [4].

The values above are taken from ChEMBL document CHEMBL4414628, “Engineering Fluorine into Verticillins (Epipolythiodioxopiperazine Alkaloids) via Precursor-Directed Biosynthesis” (J Nat Prod, 2019).
